Measured values reported in ChEMBL document CHEMBL1667756, “Design, synthesis and antibacterial activity of 3-methylenepyrrolidine formyl hydroxyamino derivatives as novel peptide deformylase inhibitors” (2011).
In brackets after ≈: the same amount, converted by molar mass.

How the values were obtained:
Type in all cases: functional
[1] = tested on: Staphylococcus epidermidis; assay: Antibacterial activity against methicillin-resistant Staphylococcus epidermidis by agar dilution method
[2] = tested on: Staphylococcus epidermidis; assay: Antibacterial activity against methicillin-susceptible Staphylococcus epidermidis by agar dilution method
[3] = tested on: Staphylococcus aureus; assay: Antibacterial activity against methicillin-resistant Staphylococcus aureus ATCC 43300 by broth micro dilution technique
[4] = tested on: Staphylococcus aureus; assay: Antibacterial activity against Staphylococcus aureus ATCC 25923 by broth micro dilution technique
[5] = tested on: Staphylococcus aureus; assay: Antibacterial activity against methicillin-susceptible Staphylococcus aureus by agar dilution method
[6] = tested on: Streptococcus pneumoniae; assay: Antibacterial activity against penicillin-susceptible Streptococcus pneumoniae by agar dilution method
[7] = tested on: Staphylococcus epidermidis; assay: Antibacterial activity against methicillin-resistant Staphylococcus epidermidis ATCC 12228 by broth micro dilution technique
[8] = tested on: Streptococcus pneumoniae; assay: Antibacterial activity against penicillin-resistant Streptococcus pneumoniae by agar dilution method
[9] = tested on: Staphylococcus aureus; assay: Antibacterial activity against methicillin-susceptible Staphylococcus aureus ATCC 29213 by broth micro dilution technique
[10] = tested on: Staphylococcus aureus; assay: Antibacterial activity against methicillin-resistant Staphylococcus aureus by agar dilution method
[11] = tested on: Haemophilus influenzae; assay: Antibacterial activity against Haemophilus influenzae by agar dilution method
[12] = tested on: Streptococcus pneumoniae; assay: Antibacterial activity against Streptococcus pneumoniae N1387 by broth micro dilution technique
[13] = tested on: Streptococcus pyogenes; assay: Antibacterial activity against Streptococcus pyogenes 1308007P by broth micro dilution technique
[14] = tested on: Enterococcus faecalis; assay: Antibacterial activity against Enterococcus faecalis by broth micro dilution technique
[15] = tested on: Staphylococcus aureus; assay: Antibacterial activity against Staphylococcus aureus WCUH29 by broth micro dilution technique
[16] = tested on: Haemophilus influenzae; assay: Antibacterial activity against Haemophilus influenzae H128 by broth micro dilution technique
[17] = tested on: Staphylococcus aureus; assay: Antibacterial activity against Staphylococcus aureus OXFORD by broth micro dilution technique
[18] = tested on: Escherichia coli; assay: Antibacterial activity against Escherichia coli by broth micro dilution technique
[19] = tested on: Streptococcus pyogenes; assay: Antibacterial activity against Streptococcus pyogenes 1307006P by broth micro dilution technique
[20] = tested on: Enterococcus faecium; assay: Antibacterial activity against Enterococcus faecium X7501 by broth micro dilution technique
[21] = tested on: Haemophilus influenzae; assay: Antibacterial activity against AcrA deficient Haemophilus influenzae H128 by broth micro dilution technique
[22] = tested on: Streptococcus pneumoniae; assay: Antibacterial activity against Streptococcus pneumoniae 1629 by broth micro dilution technique
[23] = tested on: Moraxella catarrhalis; assay: Antibacterial activity against Moraxella catarrhalis 1502 by broth micro dilution technique
[24] = tested on: Haemophilus influenzae; assay: Antibacterial activity against Haemophilus influenzae Q1 by broth micro dilution technique
[25] = tested on: Streptococcus pneumoniae; assay: Antibacterial activity against Streptococcus pneumoniae ERY2 by broth micro dilution technique

Structure (SMILES)	MIC [1] [µg/mL]	MIC [2] [µg/mL]	MIC [3] [µg/mL]	MIC [4] [µg/mL]	MIC [5] [µg/mL]	MIC [6] [µg/mL]	MIC [7] [µg/mL]	MIC [8] [µg/mL]	MIC [9] [µg/mL]	MIC [10] [µg/mL]	MIC [11] [µg/mL]	also measured
C=C1C[C@@H](C(=O)Nc2ccc(F)cc2)N(C(=O)[C@H](CC2CCCC2)CN(O)C=O)C1	0.25 (≈ 0.599 µM)	0.5 (≈ 1.2 µM)	0.5 (≈ 1.2 µM)	1 (≈ 2.4 µM)	1 (≈ 2.4 µM)	0.25 (≈ 0.599 µM)	1 (≈ 2.4 µM)	0.25 (≈ 0.599 µM)	2 (≈ 4.79 µM)	0.25 (≈ 0.599 µM)	4 (≈ 9.58 µM)	–
C=C1C[C@@H](C(=O)Nc2ccc(F)cn2)N(C(=O)[C@H](CC2CCCC2)CN(O)C=O)C1	0.5 (≈ 1.19 µM)	0.5 (≈ 1.19 µM)	0.0625 (≈ 0.149 µM)	0.5 (≈ 1.19 µM)	0.5 (≈ 1.19 µM)	0.25 (≈ 0.597 µM)	0.125 (≈ 0.299 µM)	0.25 (≈ 0.597 µM)	1 (≈ 2.39 µM)	0.25 (≈ 0.597 µM)	2 (≈ 4.78 µM)	–
C=C1C[C@@H](C(=O)Nc2ccc(F)c[n+]2[O-])N(C(=O)[C@H](CC2CCCC2)CN(O)C=O)C1	0.25 (≈ 0.575 µM)	0.125 (≈ 0.288 µM)	0.125 (≈ 0.288 µM)	0.125 (≈ 0.288 µM)	0.5 (≈ 1.15 µM)	0.25 (≈ 0.575 µM)	0.5 (≈ 1.15 µM)	0.0625 (≈ 0.144 µM)	2 (≈ 4.6 µM)	0.125 (≈ 0.288 µM)	2 (≈ 4.6 µM)	–
C=C1C[C@@H](C(=O)Nc2ncc(C)s2)N(C(=O)[C@H](CC2CCCC2)CN(O)C=O)C1	0.5 (≈ 1.19 µM)	1 (≈ 2.38 µM)	0.0625 (≈ 0.149 µM)	0.0625 (≈ 0.149 µM)	1 (≈ 2.38 µM)	0.25 (≈ 0.594 µM)	0.125 (≈ 0.297 µM)	0.25 (≈ 0.594 µM)	0.5 (≈ 1.19 µM)	0.0625 (≈ 0.149 µM)	1 (≈ 2.38 µM)	–
CCCC[C@H](CN(O)C=O)C(=O)N1CCC[C@H]1C(=O)Nc1ccc(F)c[n+]1[O-]	0.125 (≈ 0.315 µM)	0.5 (≈ 1.26 µM)	0.5 (≈ 1.26 µM)	0.5 (≈ 1.26 µM)	0.5 (≈ 1.26 µM)	0.125 (≈ 0.315 µM)	1 (≈ 2.52 µM)	0.5 (≈ 1.26 µM)	2 (≈ 5.05 µM)	0.125 (≈ 0.315 µM)	2 (≈ 5.05 µM)	–
CC1(C)S[C@@H]2[C@H](NC(=O)[C@H](N)c3ccc(O)cc3)C(=O)N2[C@H]1C(=O)O [AMOXICILLIN]	–	–	–	–	–	–	–	–	–	–	–	MIC [12]: 2 µg/mL (≈ 5.47 µM); MIC [13]: ≤ 0.06 µg/mL; MIC [14]: 0.5 µg/mL (≈ 1.37 µM); MIC [15]: 64 µg/mL (≈ 175 µM); MIC [16]: 32 µg/mL (≈ 87.6 µM); MIC [17]: 0.125 µg/mL (≈ 0.342 µM); MIC [18]: 1 µg/mL (≈ 2.74 µM); MIC [19]: ≤ 0.06 µg/mL; MIC [20]: 16 µg/mL (≈ 43.8 µM); MIC [21]: 64 µg/mL (≈ 175 µM); MIC [22]: ≤ 0.06 µg/mL; MIC [23]: ≤ 0.06 µg/mL; MIC [24]: 0.25 µg/mL (≈ 0.684 µM); MIC [25]: ≤ 0.06 µg/mL
O=C(O)c1cn(C2CC2)c2cc(N3CCNCC3)c(F)cc2c1=O [CIPROFLOXACIN]	1 (≈ 3.02 µM)	0.25 (≈ 0.754 µM)	1 (≈ 3.02 µM)	0.5 (≈ 1.51 µM)	1 (≈ 3.02 µM)	2 (≈ 6.04 µM)	0.25 (≈ 0.754 µM)	–	0.5 (≈ 1.51 µM)	1 (≈ 3.02 µM)	0.125 (≈ 0.377 µM)	–
CC(=O)NC[C@H]1CN(c2ccc(N3CCOCC3)c(F)c2)C(=O)O1 [LINEZOLID]	1 (≈ 2.96 µM)	1 (≈ 2.96 µM)	–	–	1 (≈ 2.96 µM)	–	0.5 (≈ 1.48 µM)	–	–	0.5 (≈ 1.48 µM)	–	–
CC1(C)S[C@@H]2[C@H](NC(=O)Cc3ccccc3)C(=O)N2[C@H]1C(=O)O [PENICILLIN G]	64 (≈ 191 µM)	4 (≈ 12 µM)	64 (≈ 191 µM)	0.0625 (≈ 0.187 µM)	0.5 (≈ 1.5 µM)	2 (≈ 5.98 µM)	2 (≈ 5.98 µM)	64 (≈ 191 µM)	1 (≈ 2.99 µM)	64 (≈ 191 µM)	16 (≈ 47.8 µM)	–
CN[C@H](CC(C)C)C(=O)N[C@H]1C(=O)N[C@@H](CC(N)=O)C(=O)N[C@H]2C(=O)N[C@H]3C(=O)N[C@H](C(=O)N[C@H](C(=O)O)c4cc(O)cc(O)c4-c4cc3ccc4O)[C@H](O)c3ccc(c(Cl)c3)Oc3cc2cc(c3O[C@@H]2O[C@H](CO)[C@@H](O)[C@H](O)[C@H]2O[C@H]2C[C@](C)(N)[C@H](O)[C@H](C)O2)Oc2ccc(cc2Cl)[C@H]1O [VANCOMYCIN]	–	–	–	–	–	1 (≈ 0.69 µM)	–	1 (≈ 0.69 µM)	–	–	–	–
